Laboratory results as given in patent US9707202B2, “Certain chemical entities, compositions, and methods” (NEUPHARMA, INC., priority 2011, dated 2017).
≈ marks a conversion by molar mass, not a printed value.

Tests used:
A549 cells = test: Inhibition of cell growth in tumor cells (MTT assay); type: cell-based; conditions: Homo sapiens, 72 h compound exposure
Procedure: Inhibition of cell growth by compounds was measured using MTT assay (Mosmann, T., Journal of Immunological Methods, 1983, 65, 55-63). Tumor cell lines were purchased from ATCC (American Type Culture Collection, Manassas, Va.). All cell lines were maintained in RPMI 1640 (Hyclone) supplemented with 10% fetal bovine serum (FBS, Hyclone), glutamine (2 mM, Hyclone), and antibiotics (penicillin 100 U/mL and streptomycin 50 µg/mL) at 37° C. in a humidified atmosphere of 5% CO2 in air. Taxol (positive control, Sigma) and compounds were dissolved in DMSO (Sigma), and the final concentration of DMSO in the medium was 1%. Tumor cells were plated in 96-well plates at densities from 4000 cells/well of a 96-well plate and allowed to adhere/grow for 24 h. They were then treated with various concentrations of drug for 72 h. 3-(4,5-Dimethylthiazol-2-yl)-2,5-diphenyltetrazolium bromide (MTT, Sigma) was used to determine the number of viable cells at the time of compound addition and the number of cells remaining after 72 h compound exposure. The number of cells remaining after 72 h was compared to the number of viable cells at the time of compound addition by measuring the absorbance at 570 nm, allowing for the calculation of growth inhibition.
All concentrations of compounds were tested in triplicate and controls were averaged over 4 wells. IC50 was calculated by plotting the concentration of compound vs the percentage of inhibition in treated wells using GraphPad Prism 5.

[1] = Equilibrium solubility in aqueous buffer; type: physicochemical; conditions: thermodynamic from solid, NaOAc/AcOH buffer (100 mM, pH 5.0), shaken at rt for 24 h, HPLC UV
Procedure: The equilibrium solubility of compounds was measured in aqueous buffer. Excess amount of solid compound was added into buffer solution and the sample was briefly sonicated and then shaken at rt for 24 h. The sample was filtered and the concentration was analyzed by HPLC UV. A standard solution at 0.2 mg/mL was prepared in methanol or acetonitrile for each compound and used as an external standard for quantification.

solubility at 24 h ([1]; aqueous buffer (NaOAc/AcOH)) [µg/mL] | Compound | IC50 (A549 cells) [µM] | solubility at 24 h [1] [µg/mL]
 | COc1ccc(/C=C/C(=O)CC(=O)/C=C/c2ccc(OC(=O)N3CCN(C)CC3)c(OC)c2)cc1OC [4-((1E,6E)-7-(3,4-dimethoxyphenyl)-3,5-dioxohepta-1,6-dien-1-yl)-2-methoxyphenyl 4-methylpiperazine-1-carboxylate] | 4.3 | 320 (≈ 629 µM)
 | COc1ccc(/C=C/C(=O)CC(=O)/C=C/c2ccc(OC(=O)N(C)C)c(OC)c2)cc1OC [4-((1E,6E)-7-(3,4-dimethoxyphenyl)-3,5-dioxohepta-1,6-dien-1-yl)-2-methoxyphenyl dimethylcarbamate] | 10.6 | 
 | COc1ccc(/C=C/C(=O)CC(=O)/C=C/c2ccc(OC(=O)N3CCOCC3)c(OC)c2)cc1OC [4-((1E,6E)-7-(3,4-dimethoxyphenyl)-3,5-dioxohepta-1,6-dien-1-yl)-2-methoxyphenyl morpholine-4-carboxylate] | 4.6 | 
 | COc1cc(/C=C/C(=O)CC(=O)/C=C/c2ccc(OC(=O)N(C)C)c(OC)c2)ccc1OCCO [4-((1E,6E)-7-(4-(2-hydroxyethoxy)-3-methoxyphenyl)-3,5-dioxohepta-1,6-dien-1-yl)-2-methoxyphenyl dimethylcarbamate] | 9.1 | 
 | COc1cc(/C=C/C(=O)CC(=O)/C=C/c2ccc(OC(=O)N3CCCCC3)c(OC)c2)ccc1OCCO [4-((1E,6E)-7-(4-(2-hydroxyethoxy)-3-methoxyphenyl)-3,5-dioxohepta-1,6-dien-1-yl)-2-methoxyphenyl piperidine-1-carboxylate] | 10.9 | 
 | COc1cc(/C=C/C(=O)CC(=O)/C=C/c2ccc(OC(=O)N3CCN(C)CC3)c(OC)c2)ccc1O [4-((1E,6E)-7-(4-hydroxy-3-methoxyphenyl)-3,5-dioxohepta-1,6-dien-1-yl)-2-methoxyphenyl 4-methylpiperazine-1-carboxylate] | 3.8 | 18 (≈ 36.4 µM)
 | COc1cc(/C=C/C(=O)CC(=O)/C=C/c2ccc(OC(=O)N(C)C)c(OC)c2)ccc1O [4-((1E,6E)-7-(4-hydroxy-3-methoxyphenyl)-3,5-dioxohepta-1,6-dien-1-yl)-2-methoxyphenyl dimethylcarbamate] | 2.3 | 
 | COc1cc(/C=C/C(=O)CC(=O)/C=C/c2ccc(OC(=O)N3CCOCC3)c(OC)c2)ccc1O [4-((1E,6E)-7-(4-hydroxy-3-methoxyphenyl)-3,5-dioxohepta-1,6-dien-1-yl)-2-methoxyphenyl morpholine-4-carboxylate] | 7.2 | 
 | COc1cc(/C=C/C(=O)CC(=O)/C=C/c2ccc(OC(=O)N3CCNCC3)c(OC)c2)ccc1O [4-((1E,6E)-7-(4-hydroxy-3-methoxyphenyl)-3,5-dioxohepta-1,6-dien-1-yl)-2-methoxyphenyl piperazine-1-carboxylate] | 9.2 | 1390 (≈ 2890 µM)
 | COc1cc(/C=C/C(=O)CC(=O)/C=C/c2ccc(OC(=O)N3CCCCC3)c(OC)c2)ccc1O [4-((1E,6E)-7-(4-hydroxy-3-methoxyphenyl)-3,5-dioxohepta-1,6-dien-1-yl)-2-methoxyphenyl piperidine-1-carboxylate] | 8 | 
< 1 | COc1cc(/C=C/C(=O)CC(=O)/C=C/c2ccc(O)c(OC)c2)ccc1O [Curcumin, reference compound] | > 30 | 
